Experimental data reported in US12077503B2, “Substituted cyclic amides and their use as herbicides” (FMC CORPORATION, priority 2015, dated 2024).

How the values were obtained:
Experiment in all cases: Test C preemergence
Assay type in all cases: in vivo
[1] = test system: blackgrass (Alopecurus myosuroides); details: for Plant response rating, Blackgrass: scale 0 to 100, 0 no effect, 100 complete control
How it was run: (§1)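 Scores of 0 to 100 reflect visual comparison with control plants, where 0 means no effect and 100 complete control, made 13 to 15 d after treatment. Application was preemergence to seeds in loam-sand soil or postemergence to plants 2 to 18 cm tall in peat-based mix, using a surfactant-containing solvent formulation.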

[2] = test system: ryegrass, Italian (Italian ryegrass, Lolium multiflorum); details: for Plant response rating, Ryegrass, Italian: scale 0 to 100, 0 no effect, 100 complete control
How it was run: as §1

[3] = test system: morningglory (Ipomoea coccinea); details: for Plant response rating, Morningglory: scale 0 to 100, 0 no effect, 100 complete control
How it was run: as §1

[4] = test system: lambsquarters (Chenopodium album); details: for Plant response rating, Lambsquarters: scale 0 to 100, 0 no effect, 100 complete control
How it was run: as §1

[5] = test system: Galium (catchweed bedstraw, Galium aparine); details: for Plant response rating, Galium: scale 0 to 100, 0 no effect, 100 complete control
How it was run: as §1

[6] = test system: waterhemp (common waterhemp, Amaranthus rudis); details: for Plant response rating, Waterhemp: scale 0 to 100, 0 no effect, 100 complete control
How it was run: as §1

corn (Zea mays) = details: for Plant response rating, Corn: scale 0 to 100, 0 no effect, 100 complete control
How it was run: as §1

[7] = test system: velvetleaf (Abutilon theophrasti); details: for Plant response rating, Velvetleaf: scale 0 to 100, 0 no effect, 100 complete control
How it was run: as §1

[8] = test system: pigweed (Amaranthus retroflexus); details: for Plant response rating, Pigweed: scale 0 to 100, 0 no effect, 100 complete control
How it was run: as §1

[9] = test system: foxtail, giant (giant foxtail, Setaria faberii); details: for Plant response rating, Foxtail, Giant: scale 0 to 100, 0 no effect, 100 complete control
How it was run: as §1

[10] = test system: johnsongrass (Sorghum halepense); details: for Plant response rating, Johnsongrass: scale 0 to 100, 0 no effect, 100 complete control
How it was run: as §1

[11] = test system: ragweed (common ragweed, Ambrosia elatior); details: for Plant response rating, Ragweed: scale 0 to 100, 0 no effect, 100 complete control
How it was run: as §1

[12] = test system: oilseed rape (Brassica napus); details: for Plant response rating, Oilseed Rape: scale 0 to 100, 0 no effect, 100 complete control
How it was run: as §1

[13] = test system: barnyardgrass (Echinochloa crus-galli); details: for Plant response rating, Barnyardgrass: scale 0 to 100, 0 no effect, 100 complete control
How it was run: as §1

[14] = test system: wheat (winter wheat, Triticum aestivum); details: for Plant response rating, Wheat: scale 0 to 100, 0 no effect, 100 complete control
How it was run: as §1

soybean (Glycine max) = details: for Plant response rating, Soybean: scale 0 to 100, 0 no effect, 100 complete control
How it was run: as §1

[15] = test system: crabgrass, large (large crabgrass, Digitaria sanguinalis); details: for Plant response rating, Crabgrass, Large: scale 0 to 100, 0 no effect, 100 complete control
How it was run: as §1

[16] = 31 g ai/ha, 0 is no effect, 100 is complete control

O=C1NCC(c2cccc(OC(F)(F)C(F)F)c2)C1C(=O)Nc1ccc(F)c(F)c1F (racemic) [Compound 698]
Plant response rating (scale of 0 to 100), Blackgrass [1, 16]: 0
Plant response rating, Blackgrass ([1]; 62 g ai/ha): 0
Plant response rating, Blackgrass ([1]; 125 g ai/ha): 50
Plant response rating, Blackgrass ([1]; 250 g ai/ha): 70
Plant response rating (scale of 0 to 100), Ryegrass, Italian [2, 16]: 0
Plant response rating, Ryegrass, Italian ([2]; 62 g ai/ha): 0
Plant response rating, Ryegrass, Italian ([2]; 125 g ai/ha): 0
Plant response rating, Ryegrass, Italian ([2]; 250 g ai/ha): 30
Plant response rating (scale of 0 to 100), Morningglory [3, 16]: 0
Plant response rating, Morningglory ([3]; 62 g ai/ha): 0
Plant response rating, Morningglory ([3]; 125 g ai/ha): 20
Plant response rating, Morningglory ([3]; 250 g ai/ha): 25
Plant response rating (scale of 0 to 100), Lambsquarters [4, 16]: 10
Plant response rating, Lambsquarters ([4]; 62 g ai/ha): 35
Plant response rating, Lambsquarters ([4]; 125 g ai/ha): 70
Plant response rating, Lambsquarters ([4]; 250 g ai/ha): 80
Plant response rating (scale of 0 to 100), Galium [5, 16]: 100
Plant response rating, Galium ([5]; 62 g ai/ha): 90
Plant response rating, Galium ([5]; 125 g ai/ha): 100
Plant response rating, Galium ([5]; 250 g ai/ha): 90
Plant response rating (scale of 0 to 100), Waterhemp [6, 16]: 85
Plant response rating, Waterhemp ([6]; 62 g ai/ha): 85
Plant response rating, Waterhemp ([6]; 125 g ai/ha): 85
Plant response rating, Waterhemp ([6]; 250 g ai/ha): 90
Plant response rating (scale of 0 to 100), Corn (corn (Zea mays); [16]): 40
Plant response rating, Corn (corn (Zea mays); 62 g ai/ha): 70
Plant response rating, Corn (corn (Zea mays); 125 g ai/ha): 80
Plant response rating, Corn (corn (Zea mays); 250 g ai/ha): 80
Plant response rating (scale of 0 to 100), Velvetleaf [7, 16]: 25
Plant response rating, Velvetleaf ([7]; 62 g ai/ha): 40
Plant response rating, Velvetleaf ([7]; 125 g ai/ha): 50
Plant response rating, Velvetleaf ([7]; 250 g ai/ha): 65
Plant response rating (scale of 0 to 100), Pigweed [8, 16]: 75
Plant response rating, Pigweed ([8]; 62 g ai/ha): 85
Plant response rating, Pigweed ([8]; 125 g ai/ha): 90
Plant response rating, Pigweed ([8]; 250 g ai/ha): 90
Plant response rating (scale of 0 to 100), Foxtail, Giant [9, 16]: 85
Plant response rating, Foxtail, Giant ([9]; 62 g ai/ha): 90
Plant response rating, Foxtail, Giant ([9]; 125 g ai/ha): 85
Plant response rating, Foxtail, Giant ([9]; 250 g ai/ha): 90
Plant response rating (scale of 0 to 100), Johnsongrass [10, 16]: 75
Plant response rating, Johnsongrass ([10]; 62 g ai/ha): 75
Plant response rating, Johnsongrass ([10]; 125 g ai/ha): 80
Plant response rating, Johnsongrass ([10]; 250 g ai/ha): 85
Plant response rating (scale of 0 to 100), Ragweed [11, 16]: 70
Plant response rating, Ragweed ([11]; 62 g ai/ha): 40
Plant response rating, Ragweed ([11]; 125 g ai/ha): 40
Plant response rating, Ragweed ([11]; 250 g ai/ha): 55
Plant response rating (scale of 0 to 100), Oilseed Rape [12, 16]: 0
Plant response rating, Oilseed Rape ([12]; 62 g ai/ha): 30
Plant response rating, Oilseed Rape ([12]; 125 g ai/ha): 80
Plant response rating, Oilseed Rape ([12]; 250 g ai/ha): 85
Plant response rating (scale of 0 to 100), Barnyardgrass [13, 16]: 75
Plant response rating, Barnyardgrass ([13]; 62 g ai/ha): 90
Plant response rating, Barnyardgrass ([13]; 125 g ai/ha): 90
Plant response rating, Barnyardgrass ([13]; 250 g ai/ha): 90
Plant response rating (scale of 0 to 100), Wheat [14, 16]: 0
Plant response rating, Wheat ([14]; 62 g ai/ha): 0
Plant response rating, Wheat ([14]; 125 g ai/ha): 0
Plant response rating, Wheat ([14]; 250 g ai/ha): 30
Plant response rating (scale of 0 to 100), Soybean (soybean (Glycine max); [16]): 35
Plant response rating, Soybean (soybean (Glycine max); 62 g ai/ha): 0
Plant response rating, Soybean (soybean (Glycine max); 125 g ai/ha): 0
Plant response rating, Soybean (soybean (Glycine max); 250 g ai/ha): 0
Plant response rating (scale of 0 to 100), Crabgrass, Large [15, 16]: 90
Plant response rating, Crabgrass, Large ([15]; 62 g ai/ha): 90
Plant response rating, Crabgrass, Large ([15]; 125 g ai/ha): 95
Plant response rating, Crabgrass, Large ([15]; 250 g ai/ha): 95
